Assays:
[1] = system: Lacticaseibacillus rhamnosus FMBL L23004 CNN; assay: Antibiotic sensitivity, drug-sensitive paper; as to Antibiotic sensitivity of Lacticaseibacillus rhamnosus FMBL L23004 CNN: key: R: resistant; I: intermediately sensitive; S: sensitive; format: cell-based; settings: for Antibiotic sensitivity of Lacticaseibacillus rhamnosus FMBL L23004 CNN: drug-sensitive paper (content per Table 3), MRS solid medium, anaerobic 37° C. 24 h; for Resistant / sensitive, Lacticaseibacillus rhamnosus FMBL L23004 CNN: text statement for the two strains
Experimental: (§1) After two strains were cultured anaerobically at 37° C. at a 2% inoculation rate for 24 h, 100 μL (about 1×10^7 cfu/mL) of a bacteria solution of each strain was coated on the surface of an MRS solid medium, and then drug-sensitive paper (purchased from Oxoid Company, UK) was lightly pressed tightly in the middle of each of the mediums; and after anaerobic culture was carried out at 37° C. for 24 h, the bacteriostatic condition of the drug-sensitive paper was observed, and the diameter of the inhibition zone was measured.

[2] = system: Lactiplantibacillus plantarum FMBL L23036 CNN; assay: Antibiotic sensitivity, drug-sensitive paper; as to Antibiotic sensitivity of Lactiplantibacillus plantarum FMBL L23036 CNN: key: R: resistant; I: intermediately sensitive; S: sensitive; format: cell-based; settings: for Antibiotic sensitivity of Lactiplantibacillus plantarum FMBL L23036 CNN: drug-sensitive paper (content per Table 3), MRS solid medium, anaerobic 37° C. 24 h; for Resistant / sensitive, Lactiplantibacillus plantarum FMBL L23036 CNN: text statement for the two strains
Experimental: as §1

Compound | Antibiotic sensitivity of Lacticaseibacillus rhamnosus FMBL L23004 CNN [1] | Antibiotic sensitivity of Lactiplantibacillus plantarum FMBL L23036 CNN [2] | Resistant / sensitive, Lacticaseibacillus rhamnosus FMBL L23004 CNN [1] | Resistant / sensitive, Lactiplantibacillus plantarum FMBL L23036 CNN [2]
Cc1onc(-c2ccccc2)c1C(=O)N[C@@H]1C(=O)N2[C@@H]1SC(C)(C)[C@@H]2C(=O)O [Oxacillin] | I | R | – | –
CO[C@H]1/C=C/O[C@@]2(C)Oc3c(C)c(O)c4c(O)c(c(/C=N/N5CCN(C)CC5)c(O)c4c3C2=O)NC(=O)/C(C)=C\C=C\[C@H](C)[C@H](O)[C@@H](C)[C@@H](O)[C@@H](C)[C@H](OC(C)=O)[C@@H]1C [Rifampicin] | S | S | – | –
CN(C)c1ccc(O)c2c1C[C@H]1C[C@H]3[C@H](N(C)C)C(O)=C(C(N)=O)C(=O)[C@@]3(O)C(O)=C1C2=O [Minocycline] | S | S | – | –
NC[C@H]1O[C@H](O[C@H]2[C@H](O)[C@@H](O[C@H]3O[C@H](CO)[C@@H](O)[C@H](N)[C@H]3O)[C@H](N)C[C@@H]2N)[C@H](O)[C@@H](O)[C@@H]1O [Kanamycin] | R | R | – | –
Gentamicin | R | R | resistant | resistant
CCn1cc(C(=O)O)c(=O)c2cc(F)c(N3CCNCC3)cc21 [Norfloxacin] | R | R | resistant | resistant
Polymyxin | R | R | resistant | resistant
Teicoplanin | R | R | resistant | resistant
O=C(O)c1cn(C2CC2)c2cc(N3CCNCC3)c(F)cc2c1=O [Ciprofloxacin] | R | R | resistant | resistant
NCC[C@H](O)C(=O)N[C@@H]1C[C@H](N)[C@@H](O[C@H]2O[C@H](CN)[C@@H](O)[C@H](O)[C@H]2O)[C@H](O)[C@H]1O[C@H]1O[C@H](CO)[C@@H](O)[C@H](N)[C@H]1O [Amikacin] | R | R | resistant | resistant
CC1(C)S[C@@H]2[C@H](NC(=O)[C@H](N)c3ccc(O)cc3)C(=O)N2[C@H]1C(=O)O [Amoxicillin] | S | S | sensitive | sensitive
CC1(C)S[C@@H]2[C@H](NC(=O)[C@H](N)c3ccccc3)C(=O)N2[C@H]1C(=O)O [Ampicillin] | S | S | sensitive | sensitive
CN(C)[C@@H]1C(O)=C(C(N)=O)C(=O)[C@@]2(O)C(O)=C3C(=O)c4c(O)cccc4[C@@](C)(O)[C@H]3C[C@@H]12 [Tetracycline] | S | S | – | –
[H]/N=C(/N)N[C@H]1[C@H](O)[C@@H](O)[C@H](O[C@@H]2O[C@@H](C)[C@](O)(C=O)[C@H]2O[C@@H]2O[C@@H](CO)[C@H](O)[C@@H](O)[C@@H]2NC)[C@@H](N/C(N)=N\[H])[C@@H]1O [Streptomycin] | I | R | – | –
CC[C@H]1OC(=O)[C@H](C)[C@@H](O[C@H]2C[C@@](C)(OC)[C@@H](O)[C@H](C)O2)[C@H](C)[C@@H](O[C@@H]2O[C@H](C)C[C@H](N(C)C)[C@H]2O)[C@](C)(O)C[C@@H](C)C(=O)[C@H](C)[C@@H](O)[C@]1(C)O [Erythromycin] | S | I | – | –
Penicillin | S | S | sensitive | sensitive
CN[C@H](CC(C)C)C(=O)N[C@H]1C(=O)N[C@@H](CC(N)=O)C(=O)N[C@H]2C(=O)N[C@H]3C(=O)N[C@H](C(=O)N[C@H](C(=O)O)c4cc(O)cc(O)c4-c4cc3ccc4O)[C@H](O)c3ccc(c(Cl)c3)Oc3cc2cc(c3O[C@@H]2O[C@H](CO)[C@@H](O)[C@H](O)[C@H]2O[C@H]2C[C@](C)(N)[C@H](O)[C@H](C)O2)Oc2ccc(cc2Cl)[C@H]1O [Vancomycin] | R | R | resistant | resistant
O=C(Cc1cccs1)N[C@@H]1C(=O)N2C(C(=O)[O-])=C(C[n+]3ccccc3)CS[C@H]12 [Cephaloridine] | S | S | sensitive | sensitive
CCC[C@@H]1C[C@@H](C(=O)N[C@@H]([C@H]2O[C@H](SC)[C@H](O)[C@@H](O)[C@H]2O)[C@H](C)Cl)N(C)C1 [Clindamycin] | S | S | – | –
O=C(N[C@H](CO)[C@H](O)c1ccc([N+](=O)[O-])cc1)C(Cl)Cl [Chloramphenicol] | S | S | sensitive | sensitive
